The values below come from patent US11466010B2, “Toll-like receptor 8 (TLR8) specific antagonists and methods of making and uses thereof” (The Regents of the University of Colorado, a body corporate, priority 2017, dated 2022).

Each structure is given as a SMILES string. Entries after “also recorded” stand apart in the source; their conditions may differ.

The target in one assay is T1, human TLR8 (Homo sapiens, UniProt Q9NR97).
T1 construct: expressed in transfected cells; host or cells: HEK-Blue Null1 cells, lentiviral infection
T1 sequence (Q9NR97 27-1041): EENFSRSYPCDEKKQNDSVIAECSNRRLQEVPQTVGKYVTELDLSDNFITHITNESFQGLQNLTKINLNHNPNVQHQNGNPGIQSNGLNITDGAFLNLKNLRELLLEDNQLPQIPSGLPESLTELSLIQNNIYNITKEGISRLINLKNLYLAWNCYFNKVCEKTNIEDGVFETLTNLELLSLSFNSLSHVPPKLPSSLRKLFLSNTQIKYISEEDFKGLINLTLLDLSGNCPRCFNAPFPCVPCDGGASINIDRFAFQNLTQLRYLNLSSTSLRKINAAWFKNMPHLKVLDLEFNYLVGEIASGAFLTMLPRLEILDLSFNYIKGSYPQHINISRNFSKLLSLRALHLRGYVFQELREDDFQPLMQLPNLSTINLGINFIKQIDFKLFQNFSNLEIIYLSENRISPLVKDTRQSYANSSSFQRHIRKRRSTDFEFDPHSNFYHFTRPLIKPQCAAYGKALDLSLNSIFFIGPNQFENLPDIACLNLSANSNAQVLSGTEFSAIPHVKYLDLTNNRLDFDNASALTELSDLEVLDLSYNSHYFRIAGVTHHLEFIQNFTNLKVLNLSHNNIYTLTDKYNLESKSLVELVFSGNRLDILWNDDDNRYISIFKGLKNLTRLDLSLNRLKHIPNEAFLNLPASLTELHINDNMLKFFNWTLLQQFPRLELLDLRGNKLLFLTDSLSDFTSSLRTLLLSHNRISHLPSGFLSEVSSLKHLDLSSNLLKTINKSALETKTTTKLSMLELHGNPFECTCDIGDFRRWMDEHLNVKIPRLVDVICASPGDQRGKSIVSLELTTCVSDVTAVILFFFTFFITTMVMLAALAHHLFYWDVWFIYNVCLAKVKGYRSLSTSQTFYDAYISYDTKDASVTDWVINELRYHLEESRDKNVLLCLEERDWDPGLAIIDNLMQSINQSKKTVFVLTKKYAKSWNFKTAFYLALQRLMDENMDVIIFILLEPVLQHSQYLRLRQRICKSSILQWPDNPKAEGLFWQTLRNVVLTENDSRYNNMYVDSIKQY
The experiment in a line: SEAP reporter assay in HEK-Blue TLR8 cells, R848-induced TLR8 signaling. It counts as cell-based. Here is the method: SEAP reporter assay: HEK-Blue TLR8 cells were seeded in tissue culture treated 96-well plates with a density of 7.5×10^4 cells/well in DMEM media supplemented with 10% FBS (phosphatases deactivated with heat). […] Plates are then incubated in humidified incubators containing 5% CO2 at 37° C. for 24 h, after which, 30 μL of culture media was transfer to a new plate and 100 μL of Quanti-Blue (Invivogen) was added, the plate was then incubated at 37° C. till color change (30 min-1 h). Readout of absorbance at 620 nm was quantified using Beckman-Coulter DTX 880 Multimode Detector. […] SEAP assays for each sample were conducted with three biological replicates, each in triplicate.
To establish a robust high throughput assay for TLR8 inhibitors, the inventors first engineered a cell line stably overexpressing the human TLR8 whose activation can be reported by the Secreted Embryonic Alkaline Phosphatase (SEAP) assay. TLR8-overexpresing HEK-Blue cells were prepared by lentiviral infection of HEK-Blue Null1 cells that have null or low basal expression of endogenous TLR genes. […] The TLR8-mediated NF-κB activation can be assessed by measuring the SEAP activity.
(In a reporter assay the amount or activity of a reporter protein is the signal.)

The test system of assay [1] is TLR8-mediated TNF-α and IL-8 mRNA. The experiment in a line: RT-PCR of TNF-α and IL-8 mRNA in R848 treated HEK-Blue TLR8 cells. The note with it: negative control, 10 μM. It counts as cell-based, human. An excerpt: R848-induced TLR8 activation results in increased production of the proinflammatory cytokines, such as TNF-α, IL-6 and IL-8.
Assay [2] relates to TLR8-mediated TNF-α production in THP-1 cells. Nature of the assay: R848-induced TNF-α production in differentiated THP-1 monocytes. The note with it: 10 μM. The format is cell-based, human.
Assay [3] has as its system TLR8-mediated TNF-α production in PBMC cells. Nature of the assay: R848-induced TNF-α secretion in PBMCs. The format is cell-based, human. The note with it: 1 μg/mL R848; dose-dependent; 4a at 50 μM. An excerpt:
Peripheral blood mononuclear cells (PBMCs) include lymphocytes (T cells, B cells, and NK cells), monocytes, and dendritic cells expressing various TLRs. TLR7 and TLR8 are both expressed on B cells and monocytes, while DC plasmacytoids (DCps) express only TLR7 and immature DCs (DC11c^+) express only TLR8.

The test system of assay [4] is TNF-α production in PBMCs from RA patients. Nature of the assay: TNF-α level in PBMCs harvested from RA patients. The format is cell-based, human. The note with it: negative control, up to 80 μM.
The test system of assay [5] is TNF-α production in PBMCs from an AOSD patient. Nature of the assay: TNF-α level in PBMCs harvested from an AOSD patient. The note with it: negative control, 40 μM. It counts as cell-based, human. The method, then: But there is a lack of appropriate rodent models because TLR8 is not functional in either mice or rats. Therefore, the TLR8 inhibitors of this disclosure were tested in human specimens harvested from patients with osteoarthritis (OA), rheumatoid arthritis (RA), and adult onset-Still's disease (AOSD). It is well established that TNF-α and IL-1β are key cytokines in the process of chronic joint inflammation in cartilage. Therefore, synovial cells were isolated from synovial tissue of patients who underwent joint replacement surgery due to severe OA. Previous studies have indicated these pathological tissues express both TLR7 and TLR8 with elevated production of various cytokines, contributing to extensive articular destruction and functional decline.

[6] abbreviates: 1(2H)-phthalazinone and quinoline derivatives in HEK-Blue hTLR8 cells.
[7] abbreviates: same column as E3, cell prints (nM), HEK-Blue hTLR8 cells.

`O=C(O)c1cnn2c(-c3cccc(C(F)(F)F)c3)ccnc12` [Compound 4a]: at human TLR8 (up to 20 μM), the “inhibitory activity against TLR8 signaling” value is on record as “did not show any inhibitory activity”. The “inhibition of R848-induced TNF-α and IL-8 mRNA levels” value in assay [1] is “negligible inhibition”. Moreover, in assay [2], the “inhibition of R848-induced TNF-α production” value is “failed to show significant inhibition”. Also, in assay [3], the “R848-induced TNF-α secretion of PBMCs” value was “not”. For the same compound, the “inhibition of TNF-α level in PBMCs from RA patients” value in assay [4] was “did not show significant inhibition; also recorded: did not show notable inhibitory activity”. For the same compound, the “inhibitory activity on TNF-α level in PBMCs from an AOSD patient” value in assay [5] was “did not show notable inhibitory activity”.

The compound `N#Cc1cc(-c2n[nH]c(=O)c3ccccc23)ccc1O` [Compound 28, 4-(4-Hydroxy-3-cyanophenyl)-1(2H)-phthalazinone] registered an IC50 on human TLR8 (setting [6]) of over 20000 nM.

In turn, `COc1ccc(-c2n[nH]c(=O)c3ccccc23)cc1[N+](=O)[O-]` [Compound 29, 4-(4-Methoxyl-3-nitrophenyl)-1(2H)-phthalazinone] returned an IC50 on human TLR8 (setting [6]) of over 20000 nM.

`Cc1cc(-c2nn(C)c(=O)c3ccccc23)ccc1O` [Compound 30, 4-(4-Hydroxy-3-methylphenyl)-2-methyl-1(2H)-phthalazinone] returned an IC50 at human TLR8 (setting [6]) of 330 ± 40 nM.

On human TLR8 (setting [6]), `CCn1nc(-c2ccc(O)c(C)c2)c2ccccc2c1=O` [Compound 31, 4-(4-Hydroxy-3-methylphenyl)-2-ethyl-1(2H)-phthalazinone] returned an IC50 of over 20000 nM.

Consider `CCOc1ccc(-c2nn(CC)c(=O)c3ccccc23)cc1C` [Compound 32, 4-(4-Ethoxyl-3-methylphenyl)-2-ethyl-1(2H)-phthalazinone], for which the IC50 at human TLR8 (setting [6]) is over 20000 nM.

For the compound `O=c1c2ccccc2c(-c2ccccc2)nn1-c1ccccc1` [Compound 33, 2,4-Diphenyl-1(2H)-phthalazinone], the IC50 against human TLR8 (setting [6]) was over 20000 nM.

At human TLR8 (setting [6]), `Cc1cc(-c2n[nH]c(=O)c3cccc(C)c23)ccc1O` [Compound 34, 4-(4-Hydroxy-3-methylphenyl)-5-methyl-1(2H)-phthalazinone] came in with an IC50 of over 20000 nM.

With `Cc1cc(-c2n[nH]c(=O)c3cccnc23)cc(C)c1O` [Compound 35], the IC50 against human TLR8 (setting [6]) is 13000 ± 2140 nM.

For `Cc1cc(-c2ccnc3ccccc23)cc(C)c1O` [Compound 36, 4-(3,5-Dimethyl-4-Hydroxyphenyl)quinoline], at human TLR8 (setting [7]), the half-inhibitory concentration (IC50) came to 25.5 ± 10.7 nM.

In turn, `Cc1cc(-c2ccnc3ccccc23)ccc1O` [Compound 37, 4-(3-Methyl-4-Hydroxyphenyl)quinoline] showed an IC50 against human TLR8 (setting [7]) of 38.6 ± 5.75 nM.

`Cc1cc(-c2ncnc3ccccc23)ccc1O` [Compound 38, 4-(3-Methyl-4-Hydroxyphenyl)quinazoline] displayed a half-inhibitory concentration (IC50) against human TLR8 (setting [6]) of 350 ± 120 nM.

Regarding `Cc1cc(-c2cncc3ccccc23)ccc1O` [Compound 39, 4-Isoquinolin-4-yl-2-methylphenol], on human TLR8 (setting [6]), half-maximal inhibition (IC50) required 160 ± 20 nM.

As for `Cc1cc(-c2nncc3ccccc23)cc(C)c1O` [Compound 40, 1-(3,5-Dimethyl-4-Hydroxyphenyl)-phthalazine], it took 11400 ± 360 nM to reach half-maximal inhibition on human TLR8 (setting [6]) (IC50).

`Cc1cc(-c2nncc3ccccc23)ccc1O` [Compound 41, 1-(3-Methyl-4-Hydroxyphenyl)-phthalazine] showed an IC50 on human TLR8 (setting [6]) of 6750 ± 1300 nM.

Turning to `Cc1cc(-c2cccc3ccccc23)cc(C)c1O` [Compound 42, 1-(4-Hydroxy-3,5-dimethylphenyl)naphthalene], on human TLR8 (setting [6]), the 50% inhibitory concentration (IC50) was found to be 1220 ± 100 nM.

At human TLR8 (setting [6]), `Cc1cc(-c2cccc3ccccc23)ccc1O` [Compound 43, 1-(4-Hydroxy-3-methylphenyl)naphthalene] came in with an IC50 of over 20000 nM.

For `Cc1cc(-c2cnnc3ccccc23)ccc1O` [Compound 45, 4-(4-Hydroxy-3-methylphenyl)-cinnolin], the midpoint of inhibition against human TLR8 (setting [6]), the IC50, lay at 340 ± 20 nM.

With `Cc1cc(-c2cn(C(=O)OC(C)(C)C)c3ccccc23)ccc1O` [Compound 46, N-tert-butoxycarbonyl-3-(4-Hydroxy-3-methylphenyl)-indole], the IC50 against human TLR8 (setting [6]) was over 20000 nM.

In the case of `Cc1cc(-c2c[nH]c3ccccc23)ccc1O` [Compound 47, 3-(4-Hydroxy-3-methylphenyl)-indole], the IC50 on human TLR8 (setting [6]) was 2800 ± 690 nM.

On to `Cc1cc(-c2n[nH]c3ccccc23)ccc1O` [Compound 48, 3-(4-Hydroxy-3-methylphenyl)-1H-indazole], for which, at human TLR8 (setting [6]), the IC50 was over 20000 nM.

The compound `Cc1cc(-c2ccnc3[nH]ccc23)ccc1O` [Compound 49, 4-(4-Hydroxyl-3-methylphenyl)-7-azaindole] displayed an IC50 against human TLR8 (setting [6]) of 90 ± 30 nM.

For `Cc1cc(-c2ccnc3cccnc23)ccc1O` [Compound 50, 4-(4-Hydroxyl-3-methylphenyl)-1,5-naphthyridine], at human TLR8 (setting [6]), the IC50 amounted to 300 ± 70 nM.

In general, IC50 refers to the point on the concentration scale where inhibition reaches its midpoint. Read a high IC50 as weaker potency.
